# Reference: patent publication US20260184708A1, “PYRIDAZINONES AND METHODS OF USE THEREOF” (GFB (ABC), LLC, priority 2017, published 2026)
# Where two headings read alike, the source gives them in different places.
# Molecular target: T1, TRPC5 (Homo sapiens, UniProt Q9UL62)
# T1 construct: expressed in transfected cells; host or cells: HEK 293
# T1 sequence (Q9UL62 1-973): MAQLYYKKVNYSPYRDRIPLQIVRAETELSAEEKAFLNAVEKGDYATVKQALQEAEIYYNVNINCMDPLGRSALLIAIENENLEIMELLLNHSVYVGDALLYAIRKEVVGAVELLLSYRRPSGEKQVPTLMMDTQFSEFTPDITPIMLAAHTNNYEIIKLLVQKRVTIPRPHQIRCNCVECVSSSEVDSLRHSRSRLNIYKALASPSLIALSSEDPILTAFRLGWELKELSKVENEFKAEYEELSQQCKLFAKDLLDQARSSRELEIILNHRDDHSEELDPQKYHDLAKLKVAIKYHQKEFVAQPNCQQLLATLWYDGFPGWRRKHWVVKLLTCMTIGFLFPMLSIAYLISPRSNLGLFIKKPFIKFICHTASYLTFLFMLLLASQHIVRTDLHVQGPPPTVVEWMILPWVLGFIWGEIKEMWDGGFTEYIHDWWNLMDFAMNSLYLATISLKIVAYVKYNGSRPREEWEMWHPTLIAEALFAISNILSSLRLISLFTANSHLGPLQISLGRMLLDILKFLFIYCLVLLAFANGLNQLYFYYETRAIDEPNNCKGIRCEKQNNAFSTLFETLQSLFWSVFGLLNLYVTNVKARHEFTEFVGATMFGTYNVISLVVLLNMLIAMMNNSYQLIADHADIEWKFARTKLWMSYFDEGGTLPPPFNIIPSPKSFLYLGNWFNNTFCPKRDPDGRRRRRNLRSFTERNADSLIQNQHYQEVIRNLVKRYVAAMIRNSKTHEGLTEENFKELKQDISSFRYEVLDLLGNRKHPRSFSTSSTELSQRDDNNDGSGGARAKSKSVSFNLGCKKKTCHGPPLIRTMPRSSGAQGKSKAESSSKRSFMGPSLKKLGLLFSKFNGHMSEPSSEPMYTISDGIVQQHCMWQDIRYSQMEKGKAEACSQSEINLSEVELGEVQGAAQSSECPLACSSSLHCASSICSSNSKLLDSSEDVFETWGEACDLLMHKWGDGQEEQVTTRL
# Assay: TRPC5 automated patch clamp assay (Qpatch), current block after rosiglitazone stimulation
# Assay type: cell-based
# Settings: HEK293 cells overexpressing TRPC5, rosiglitazone stimulation
# Protocol: HEK 293 cells expressing human TRPC5 were harvested, re-suspended in serum free medium, and added to the automated platform and used within 2-3 hours. Internal and external physiological solutions were freshly prepared prior to the assay. The external solution contained: 145 mM NaCl, 4 mM KCl, 2 mM CaCl2), 1 mM MgCl2, 10 mM HEPES, 10 mM glucose, pH 7.4 with NaOH and 300 mOsm/L. The internal solution contained 120 mM L-aspartic acid, 120 mM CsOH·H2O, 20 mM CsCl, 2 mM MgCl2, 8.8 mM CaCl2), 10 mM EGTA, 10 mM HEPES, 10 mM Glucose, 0.1 mM GTP and 2 mM Na2ATP; pH 7.2 with CsOH and 290 mOsm/L. The free internal Ca2+ concentration was buffered to 1 μM.
# The automated electrophysiological platform QPatch 16 from Sophion (Denmark) was used to carry out the compounds profiling. The series resistance and quality of seals were continuously monitored during the experiments. Data was analyzed using Sophion QPatch assay software 5.6 (Odense). IC50 values were calculated using a least squares regression algorithm (Hill equation).
# To monitor the ion currents, a voltage ramp from −100 mV to +100 mV, over 300 ms, was applied every 10 seconds, from a holding potential of −60 mV.
# After recording for a minimum of 60 seconds control period, Rosiglitazone (30 uM), was applied to activate the channel.
# [1] = Table 4, 80 mV, read-out: TRPC5_QP_ XC50_80
# [2] = Table 4, 100 mV, read-out: TRPC5_QP_ XC50_100
# [3] = Table 5, 80 mV, read-out: TRPC5_QP_ XC50_80
# [4] = Table 5, 100 mV, read-out: TRPC5_QP_ XC50_100
SMILES,IC50 [1],IC50 [2],IC50 [3],IC50 [4]
CCN(CC)C(=O)CN1CCN(c2cn[nH]c(=O)c2Cl)CC1=O,10 to 500 µM,10 to 500 µM,,
COCCOc1c(N2CCN(Cc3ccccc3C)C(=O)C2)cn[nH]c1=O,10 to 500 µM,10 to 500 µM,,
CCN(CC)C(=O)CN1CCN(c2cn[nH]c(=O)c2Cl)CC1,10 to 500 µM,10 to 500 µM,,
Cc1ccccc1CN1CCN(c2cn[nH]c(=O)c2C2CCOCC2)CC1=O,10 to 500 µM,10 to 500 µM,,
CCN(CC)C(=O)CN1CCN(c2cn[nH]c(=O)c2Cl)[C@H](C)C1,10 to 500 µM,10 to 500 µM,,
C[C@@H]1CN(CC(=O)N(C)C)CCN1c1cn[nH]c(=O)c1Cl,10 to 500 µM,10 to 500 µM,,
Cc1cc(F)ccc1CN1CCN(c2cc(=O)[nH][nH]c2=O)CC1,10 to 500 µM,10 to 500 µM,,
Cc1ccccc1CN1CCN(c2cn[nH]c(=O)c2Oc2ccccc2)CC1=O,10 to 500 µM,10 to 500 µM,,
Cc1cc(F)ccc1CN1CCN(c2n[nH]c(=O)cc2C)CC1,10 to 500 µM,10 to 500 µM,,
Cc1cc(C(F)(F)F)ccc1CN1CCN(c2cn[nH]c(=O)c2Cl)CC1,10 to 500 µM,10 to 500 µM,,
O=C1CN(c2cn[nH]c(=O)c2Cl)CCN1Cc1ccc(-c2ccccc2)cc1,10 to 500 µM,10 to 500 µM,,
COc1n[nH]c(=O)cc1N1CCN(Cc2ccc(F)cc2C)CC1,10 to 500 µM,10 to 500 µM,,
O=C1CN(c2cn[nH]c(=O)c2Cl)CCN1Cc1cccc(-c2ccccc2)c1,10 to 500 µM,10 to 500 µM,,
Cn1ncc2c(CN3CCN(c4cn[nH]c(=O)c4Cl)CC3)cccc21,10 to 500 µM,10 to 500 µM,,
O=C1CN(c2cn[nH]c(=O)c2Cl)CCN1Cc1ccc(Oc2ccccc2)cc1,10 to 500 µM,10 to 500 µM,,
O=c1[nH]ncc(N2CCN(Cc3cccc4[nH]ncc34)CC2)c1Cl,10 to 500 µM,10 to 500 µM,,
O=c1[nH]ncc(N2CCN(Cc3cccc4cn[nH]c34)CC2)c1Cl,10 to 500 µM,10 to 500 µM,,
CCCc1c(N2CCN(Cc3ccccc3C)C(=O)C2)cn[nH]c1=O,10 to 500 µM,10 to 500 µM,,
C=C(C)c1c(N2CCN(Cc3ccccc3C)C(=O)C2)cn[nH]c1=O,10 to 500 µM,10 to 500 µM,,

SMILES,IC50 [1],IC50 [2],IC50 [3],IC50 [4]
O=c1[nH]ncc(N2CCOC(Cc3ccccc3)C2)c1Cl (centres unmarked),10 to 500 µM,10 to 500 µM,,
O=c1[nH]ncc(N2CCOC(c3ccccc3)C2)c1Cl (centres unmarked),10 to 500 µM,10 to 500 µM,,
CC(C)=Cc1c(N2CCN(Cc3ccccc3C)C(=O)C2)cn[nH]c1=O,10 to 500 µM,10 to 500 µM,,
Cc1ccccc1CN1CCN(c2cn[nH]c(=O)c2CC(C)C)CC1=O,10 to 500 µM,10 to 500 µM,,
O=C1CN(c2cn[nH]c(=O)c2Cl)CCN1Cc1ccc(Cl)cn1,10 to 500 µM,10 to 500 µM,,
O=c1[nH]ncc(N2CCN(C3(c4ccccc4)CC3)CC2)c1Cl,5 to 10 µM,5 to 10 µM,,
O=C1CN(c2cnnc(Br)c2Cl)CCN1Cc1ccc(F)cc1C(F)(F)F,10 to 500 µM,10 to 500 µM,,
O=C1CN(c2c(Cl)c(Br)n[nH]c2=O)CCN1Cc1ccccc1OC(F)(F)F,10 to 500 µM,10 to 500 µM,,
Cc1cc(F)ccc1CN1CCN(c2c(Cl)c(Br)n[nH]c2=O)CC1=O,10 to 500 µM,10 to 500 µM,,
Cc1cc(F)ccc1CN1CCN(c2c(Cl)c(C)n[nH]c2=O)CC1=O,10 to 500 µM,10 to 500 µM,,
CC(C)(C)c1ccc(CN2CCN(c3cn[nH]c(=O)c3Cl)CC2=O)cc1,,,10 to 500 µM,10 to 500 µM
COc1ncccc1CN1CCN(c2cn[nH]c(=O)c2Cl)CC1,,,1 to 5 µM,1 to 5 µM
Cc1n[nH]c(=O)c(Cl)c1N1CCN(Cc2ccccc2C(F)(F)F)C(=O)C1,,,5 to 10 µM,5 to 10 µM
Cc1n[nH]c(=O)c(Cl)c1N1CCN(Cc2ccccc2OC(F)(F)F)C(=O)C1,,,5 to 10 µM,5 to 10 µM
COc1cc(F)ccc1CN1CCN(c2c(Cl)cn[nH]c2=O)CC1=O,,,10 to 500 µM,10 to 500 µM
O=C1CN(c2cn[nH]c(=O)c2Cl)CCN1Cc1cccnc1Cl,,,10 to 500 µM,10 to 500 µM
COc1ncccc1CN1CCN(c2cn[nH]c(=O)c2Cl)CC1=O,,,5 to 10 µM,5 to 10 µM
COc1ccc(CN2CCN(c3cn[nH]c(=O)c3Cl)CC2=O)cc1,,,5 to 10 µM,5 to 10 µM
O=C1CN(c2cn[nH]c(=O)c2Cl)CCN1Cc1ccc(Cl)cc1,,,1 to 5 µM,5 to 10 µM

# The next lines start with the values.
IC50 [1],IC50 [2],IC50 [3],IC50 [4],SMILES
5 to 10 µM,5 to 10 µM,,,O=c1[nH]ncc(Cl)c1N1CCN(Cc2ccccc2OC(F)(F)F)CC1
5 to 10 µM,5 to 10 µM,,,Cc1ccccc1CN1CCN(c2c(Cl)cn[nH]c2=O)CC1
5 to 10 µM,5 to 10 µM,,,O=c1[nH]ncc(Cl)c1N1CCN(Cc2ccccc2C(F)(F)F)CC1
1 to 5 µM,1 to 5 µM,,,O=c1[nH]ncc(N2CCN(Cc3cccc4ccccc34)CC2)c1Cl
5 to 10 µM,5 to 10 µM,,,C[C@@H]1CN(Cc2cccc3ccccc23)CCN1c1cn[nH]c(=O)c1Cl
1 to 5 µM,1 to 5 µM,,,Cc1ccccc1CN1CCN(c2cn[nH]c(=O)c2Cl)C(C)C1 (centres unmarked)
5 to 10 µM,5 to 10 µM,,,Cc1cc(F)ccc1CN1CCN(c2cc(C)c(=O)[nH]n2)CC1
1 to 5 µM,1 to 5 µM,,,Cc1cc(F)ccc1CN1CCN(c2cn[nH]c(=O)c2Cl)C(C)C1 (centres unmarked)
5 to 10 µM,1 to 5 µM,,,C[C@@H](c1ccccc1)N1CCN(c2cn[nH]c(=O)c2Cl)CC1
1 to 5 µM,1 to 5 µM,,,C[C@H](c1ccccc1)N1CCN(c2cn[nH]c(=O)c2Cl)CC1
5 to 10 µM,5 to 10 µM,,,Cc1cccnc1CN1CCN(c2cn[nH]c(=O)c2Cl)CC1
5 to 10 µM,5 to 10 µM,,,Cc1ccncc1CN1CCN(c2cn[nH]c(=O)c2Cl)CC1
1 to 5 µM,1 to 5 µM,,,O=C1CN(c2cn[nH]c(=O)c2Cl)CCN1Cc1cccc(Oc2ccccc2)c1
5 to 10 µM,5 to 10 µM,,,O=C1CN(c2cn[nH]c(=O)c2Cl)CCN1Cc1ccccc1Oc1ccccc1
1e-05 to 1 µM,1e-05 to 1 µM,,,O=C1CN(c2cn[nH]c(=O)c2Cl)CCN1Cc1cccc2ccccc12
1 to 5 µM,1 to 5 µM,,,O=C1CN(c2cn[nH]c(=O)c2Cl)CCN1Cc1ccccc1-c1ccccc1
1e-05 to 1 µM,1e-05 to 1 µM,,,Cc1ccccc1C(C)N1CCN(c2cn[nH]c(=O)c2Cl)CC1=O (centres unmarked)
1 to 5 µM,1 to 5 µM,,,Cc1ccccc1CN1CCN(c2cn[nH]c(=O)c2C(C)C)CC1=O
1 to 5 µM,1 to 5 µM,,,C=Cc1c(N2CCN(Cc3ccccc3C)C(=O)C2)cn[nH]c1=O
1 to 5 µM,1 to 5 µM,,,Cc1cc(F)ccc1CN1CCN(c2cn[nH]c(=O)c2Cl)CC1=O
1 to 5 µM,1 to 5 µM,,,Cc1ccccc1[C@@H](C)N1CCN(c2cn[nH]c(=O)c2Cl)CC1
5 to 10 µM,5 to 10 µM,,,CCc1c(N2CCN(Cc3ccccc3C)C(=O)C2)cn[nH]c1=O
1e-05 to 1 µM,1e-05 to 1 µM,,,O=C1CN(c2cn[nH]c(=O)c2Cl)CCN1Cc1ccc(C(F)(F)F)cc1
1 to 5 µM,1 to 5 µM,,,Cn1ncc2c(CN3CCN(c4cn[nH]c(=O)c4Cl)CC3=O)cccc21
1 to 5 µM,1 to 5 µM,,,O=C1CN(c2cn[nH]c(=O)c2Cl)CCN1Cc1ccc(F)cc1OC(F)(F)F
1 to 5 µM,5 to 10 µM,,,O=C1CN(c2c(Cl)c(Br)n[nH]c2=O)CCN1Cc1ccccc1C(F)(F)F
